Molecular target: T1, hSK3 channels (Homo sapiens, UniProt Q9UGI6)
T1 construct: expressed in transfected cells; host or cells: HEK293
Experiment: Whole-cell patch-clamp recording of SK3 current in HEK293 cells expressing hSK3 channels
Assay type: cell-based
Protocol: The ionic current through small-conductance Ca^2+-activated K^+ channels (SK channels, subtype 3) is recorded using the whole-cell configuration of the patch-clamp technique in a classic patch-clamp set-up using HEK293 tissue culture cells expressing hSK3 channels as described in e.g. WO 2006/100212.
The SC100 value determined is defined as the Stimulating Concentration required for increasing the baseline current by 100%. The below SC100 values are an indication of the SK3 activating properties of the compounds of the invention.

SC100 (Stimulating Concentration required for increasing the baseline current by 100%)	SMILES
0.10 µM	Cc1ccn(-c2nc(NC3Cc4ccccc4C3)c3ncn(C)c3n2)n1 [Compound 5.2, Indan-2-yl-[9-methyl-2-(3-methyl-pyrazol-1-yl)-9H-purin-6-yl]-amine]
0.04 µM	Cc1cc(C)n(-c2nc(NC3Cc4ccccc4C3)c3ncn(C)c3n2)n1 [Compound 5.1, [2-(3,5-Dimethyl-pyrazol-1-yl)-9-methyl-9H-purin-6-yl]-indan-2-yl-amine]

Source: US20110237607A1, “SUBSTITUTED PURINYL-PYRAZOL DERIVATIVES AND THEIR USE AS POTASSIUM CHANNEL MODULATORS” (NEUROSEARCH A/S, priority 2008, published 2011)
